Experiments:
Assay type in all cases: in vivo
Details in all cases: 1000 g/Ha, evaluated after 13 days, glasshouse
[1] = test system: Amaranthus palmeri (AMAPA); test: Post-emergence herbicidal activity, percentage damage to AMAPA
Protocol: (§1) Seeds of a variety of test species are sown in standard soil in pots Amaranthus palmeri (AMAPA), Amaranthus retroflexus (AMARE), Setaria faberi (SETFA), Echinochloa crus-galli (ECHCG), Ipomoea hederacea (IPOHE),). After cultivation for one day (pre-emergence) or after 8 days cultivation (post-emergence) under controlled conditions in a glasshouse (at 24/160C, day/night; 14 hours light; 65% humidity), the plants are sprayed with an aqueous spray solution derived from the dissolution of the technical active ingredient in a small amount of acetone and a special solvent and emulsifier mixture referred to as IF50 (11.12% Emulsogen EL360 TM+44.44% N-methylpyrrolidone+44.44% Dowanol DPM glycol ether, which was then diluted to required concentration using 0.2% Genapol XO80 (CAS No. 9043-30-5) in water as the diluent. Compounds are applied at the rates stated. The test plants are then grown in a glasshouse under controlled conditions in a glasshouse (at 24/160C, day/night; 14 hours light; 65% humidity) and watered twice daily. After 13 days for pre and post-emergence, the test is evaluated for the percentage damage caused to the plant. The biological activities are shown in the following table on a five-point scale (5=81-100%; 4=61-80%; 3=41-60%; 2=21-40%; 1=0-20%; NT=not tested).

Setaria faberi (SETFA) [2] = test: Post-emergence herbicidal activity, percentage damage to SETFA
Protocol: as §1

[3] = test system: Amaranthus palmeri (AMAPA); test: Pre-emergence herbicidal activity, percentage damage to AMAPA
Protocol: as §1

Setaria faberi (SETFA) [4] = test: Pre-emergence herbicidal activity, percentage damage to SETFA
Protocol: as §1

[5] = test system: Ipomoea hederacea (IPOHE); test: Post-emergence herbicidal activity, percentage damage to IPOHE
Protocol: as §1

[6] = test system: Amaranthus retroflexus (AMARE); test: Pre-emergence herbicidal activity, percentage damage to AMARE
Protocol: as §1

[7] = test system: Ipomoea hederacea (IPOHE); test: Pre-emergence herbicidal activity, percentage damage to IPOHE
Protocol: as §1

[8] = test system: Echinochloa crus-galli (ECHCG); test: Post-emergence herbicidal activity, percentage damage to ECHCG
Protocol: as §1

[9] = test system: Echinochloa crus-galli (ECHCG); test: Pre-emergence herbicidal activity, percentage damage to ECHCG
Protocol: as §1

[10] = test system: Amaranthus retroflexus (AMARE); test: Post-emergence herbicidal activity, percentage damage to AMARE
Protocol: as §1

Row | SMILES | percentage damage caused to the plant (AMAPA) [1] | percentage damage caused to the plant (SETFA) (Setaria faberi (SETFA) [2]) | percentage damage caused to the plant (AMAPA) [3] | percentage damage caused to the plant (SETFA) (Setaria faberi (SETFA) [4]) | percentage damage caused to the plant (IPOHE) [5] | percentage damage caused to the plant (AMARE) [6] | percentage damage caused to the plant (IPOHE) [7] | percentage damage caused to the plant (ECHCG) [8] | percentage damage caused to the plant (ECHCG) [9] | percentage damage caused to the plant (AMARE) [10]
1 | O=C(O)C[C@@H]1[C@@H]2C[C@@H]2C(=O)N1Cc1cccc(F)c1F (relative stereo) [A.01, 2-[(1R*,2R*,5S*)-3-[(2,3-difluorophenyl)methyl]-4-oxo-3-azabicyclo[3.1.0]hexan-2-yl]acetic acid] | 2 (21-40%) | 5 (81-100%) | 2 (21-40%) | 5 (81-100%) | 3 (41-60%) | 4 (61-80%) | 2 (21-40%) | 4 (61-80%) | 4 (61-80%) | 4 (61-80%)
2 | COC(=O)C[C@H]1[C@@H]2C[C@@H]2C(=O)N1Cc1cccc(F)c1F (relative stereo) [A.10, methyl 2-[(1R*,2S*,5S*)-3-[(2,3-difluorophenyl)methyl]-4-oxo-3-azabicyclo[3.1.0]hexan-2-yl]acetate] | 1 (0-20%) | 4 (61-80%) | 2 (21-40%) | 4 (61-80%) | 2 (21-40%) | 2 (21-40%) | 1 (0-20%) | 2 (21-40%) | 1 (0-20%) | 2 (21-40%)
3 | O=C(O)C[C@@H]1[C@@H]2C[C@@H]2C(=O)N1Cc1ccccc1F (relative stereo) [A.61, 2-[(1R*,2R*,5S*)-3-[(2-fluorophenyl)methyl]-4-oxo-3-azabicyclo[3.1.0]hexan-2-yl]acetic acid] | 3 (41-60%) | 5 (81-100%) | 4 (61-80%) | 5 (81-100%) | 3 (41-60%) | 5 (81-100%) | 1 (0-20%) | 3 (41-60%) | 3 (41-60%) | 4 (61-80%)
4 | O=C(O)C[C@@H]1[C@@H]2C[C@@H]2C(=O)N1Cc1cccc(F)c1 (relative stereo) [A.64, 2-[(1R*,2R*,5S*)-3-[(3-fluorophenyl)methyl]-4-oxo-3-azabicyclo[3.1.0]hexan-2-yl]acetic acid] | 3 (41-60%) | 5 (81-100%) | 4 (61-80%) | 5 (81-100%) | 3 (41-60%) | 5 (81-100%) | 4 (61-80%) | 3 (41-60%) | 4 (61-80%) | 4 (61-80%)
5 | O=C(O)C[C@@H]1[C@@H]2C[C@@H]2C(=O)N1Cc1ccc(F)cc1 (relative stereo) [A.67, 2-[(1R*,2R*,5S*)-3-[(4-fluorophenyl)methyl]-4-oxo-3-azabicyclo[3.1.0]hexan-2-yl]acetic acid] | 3 (41-60%) | 4 (61-80%) | 4 (61-80%) | 3 (41-60%) | 2 (21-40%) | 3 (41-60%) | 4 (61-80%) | 2 (21-40%) | 3 (41-60%) | 1 (0-20%)
6 | O=C(O)C[C@@H]1[C@@H]2C[C@@H]2C(=O)N1Cc1cccc(Cl)c1 (relative stereo) [A.70, 2-[(1R*,2R*,5S*)-3-[(3-chlorophenyl)methyl]-4-oxo-3-azabicyclo[3.1.0]hexan-2-yl]acetic acid] | 3 (41-60%) | 4 (61-80%) | 1 (0-20%) | 5 (81-100%) | 1 (0-20%) | 2 (21-40%) | 1 (0-20%) | 3 (41-60%) | 4 (61-80%) | 1 (0-20%)
7 | O=C(O)C[C@@H]1[C@@H]2C[C@@H]2C(=O)N1Cc1ccc(F)c(F)c1 (relative stereo) [A.73, 2-[(1R*,2R*,5S*)-3-[(3,4-difluorophenyl)methyl]-4-oxo-3-azabicyclo[3.1.0]hexan-2-yl]acetic acid] | 1 (0-20%) | 4 (61-80%) | 3 (41-60%) | 5 (81-100%) | 1 (0-20%) | 4 (61-80%) | 4 (61-80%) | 3 (41-60%) | 3 (41-60%) | 2 (21-40%)
8 | O=C(O)C[C@@H]1[C@@H]2C[C@@H]2C(=O)N1Cc1ccc(Cl)cc1F (relative stereo) [A.76, 2-[(1R*,2R*,5S*)-3-[(2-fluoro-4-chloro)methyl]-4-oxo-3-azabicyclo[3.1.0]hexan-2-yl]acetic acid] | 1 (0-20%) | 3 (41-60%) | 3 (41-60%) | 3 (41-60%) | 2 (21-40%) | 1 (0-20%) | 4 (61-80%) | 1 (0-20%) | 1 (0-20%) | 1 (0-20%)
9 | O=C(O)C[C@@H]1[C@@H]2C[C@@H]2C(=O)N1Cc1ccc(Cl)c(F)c1 (relative stereo) [A.79, 2-[(1R*,2R*,5S*)-3-[(3-fluoro-4-chloro)methyl]-4-oxo-3-azabicyclo[3.1.0]hexan-2-yl]acetic acid] | 1 (0-20%) | 4 (61-80%) | 1 (0-20%) | 4 (61-80%) | 1 (0-20%) | 1 (0-20%) | 1 (0-20%) | 1 (0-20%) | 2 (21-40%) | 1 (0-20%)
10 | O=C(O)C[C@@H]1[C@@H]2C[C@@H]2C(=O)N1Cc1ccc(F)c(Cl)c1 (relative stereo) [A.82, 2-[(1R*,2R*,5S*)-3-[(3-chloro-4-fluoro)methyl]-4-oxo-3-azabicyclo[3.1.0]hexan-2-yl]acetic acid] | 1 (0-20%) | 4 (61-80%) | 2 (21-40%) | 4 (61-80%) | 2 (21-40%) | 2 (21-40%) | 1 (0-20%) | 1 (0-20%) | 1 (0-20%) | 2 (21-40%)
11 | O=C(O)C[C@@H]1[C@@H]2CCCC[C@@H]2C(=O)N1Cc1cccc(F)c1F (relative stereo) [E.01, 2-[(1R*,3aS*,7aR*)-2-[(2,3-difluorophenyl)methyl]-3-oxo-3a,4,5,6,7,7a-hexahydro-1H-isoindol-1-yl]acetic acid] | 1 (0-20%) | 1 (0-20%) | 3 (41-60%) | 1 (0-20%) | 1 (0-20%) | 3 (41-60%) | – | 1 (0-20%) | 2 (21-40%) | 1 (0-20%)

Reference: patent publication US20260293894A1, “FUSED PYRROLIDINE-2-ONE HERBICIDAL COMPOUNDS” (SYNGENTA CROP PROTECTION AG, priority 2023, published 2026)
